Like-named read-outs stand apart in the source and are kept apart here.
Biological target: T1, CIB1 and αIIb interaction (CIB1-GST : F-αIIb peptide) (Homo sapiens, UniProt Q99828)
T1 construct: made in house; host or cells: BL-21 plus RIL cells (E. coli)
T1 sequence (Q99828 1-191): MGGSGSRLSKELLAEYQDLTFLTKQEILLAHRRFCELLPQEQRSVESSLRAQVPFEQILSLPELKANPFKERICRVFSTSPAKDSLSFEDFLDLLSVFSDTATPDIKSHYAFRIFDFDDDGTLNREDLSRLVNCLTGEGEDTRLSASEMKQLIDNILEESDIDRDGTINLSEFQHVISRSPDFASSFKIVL
Assay: FP assay, 1536-well qHTS format (primary and confirmatory screen)
Type: binding
Conditions: for Efficacy (%): negative = inhibition; for Curve Class: negative sign = inhibitory curve; for IC50: read-out: IC50

[1] = qHTS primary screen hits, Table S2
[2] = qHTS primary screen of LOPAC/NPACT libraries
[3] = qHTS primary screen hits, Table S2, NPACT library

| Efficacy (%) [1] [%] | Curve Class [1] | IC50 [1] [µM] | Efficacy (%) [2] [%] | Curve Class [2] | IC50 [2] [µM] | Structure (SMILES) | Curve Class [3] |
| --- | --- | --- | --- | --- | --- | --- | --- |
| -66 | -2.2 | 22.4 | – | – | – | COc1ccc(C(=O)O[C@H]2C=COC=C3C=C4C(=O)N(C)C(=S)C(=O)N4[C@@H]32)cc1Oc1cc(C=O)ccc1O [NCGC00384899-01] | – |
| – | – | – | -23 | -2.4 | 31.6 | CC1CC2(O)OC(=O)C3=C2C(CCC3)[C@@]12C[C@@H](c1ccoc1)OC2=O (stereo partly drawn) [NCGC00385045-01] | – |
| – | – | – | -18 | -2.4 | 31.6 | COc1cc(/C=C/c2ccccc2)c(C(=O)O)c(O)c1CC=C(C)C [NCGC00385333-01] | – |
| – | – | – | -145 | -2.1 | 28.2 | CC(NC(=O)CC(=O)O)c1nc2ccccc2c(=O)[nH]1 (stereo not drawn) [NCGC00385407-01] | – |
| – | – | – | -28 | -2.4 | 56.2 | COc1c(C)c(OCC(O)C(C)(C)O)cc2c1CNC2=O (stereo not drawn) [NCGC00385487-01] | – |
| – | – | – | -31 | -2.4 | 39.8 | O=C(O)c1cc(O)c2cccc(O)c2c1O[C@@H]1O[C@H](CO)[C@@H](O)[C@H](O)[C@H]1O [NCGC00385595-01] | – |
| – | – | – | -30 | -2.4 | 50.1 | C=C1C(=O)O[C@@H]2C3=C(C)CCC[C@]3(C)CC[C@@]12O [NCGC00385722-01] | – |
| – | – | – | -28 | -2.4 | 56.2 | O=C(O)CC1(O)C(=O)Nc2ccccc21 (stereo not drawn) [NCGC00385842-01] | – |
| – | – | – | -21 | -1.4 | 11.2 | C=C1C(=O)OC2/C=C(\C)CC/C=C(\C)CC(OC(C)=O)C12 (stereo not drawn) [NCGC00385946-01] | – |
| – | – | – | -28 | -2.4 | 63.1 | C/C=C/C=C/c1cc2c(C=O)c(O)c(CC=C(C)C)cc2o1 [NCGC00386103-01] | – |
| – | – | – | -24 | -1.4 | 17.8 | O=C(NCc1ccc(Oc2ccccc2)cc1)c1nc(-c2cc(Br)c(O)c(Br)c2)no1 [NCGC00386303-01] | – |
| – | – | – | -22 | -1.4 | 10 | C=CC(=O)Nc1cccc(Nc2nc(Nc3ccc(OCCOC)cc3)ncc2F)c1 [NCGC00386306-06] | – |
| – | – | – | -28 | -2.4 | 56.2 | Cc1ccccc1NC(=O)Nc1ccc(CN2C(=O)N([C@@H](CC(C)C)C(=O)N[C@@H](CC(=O)O)c3ccccc3)C(=O)C2(C)C)cc1 [NCGC00386592-01] | – |
| – | – | – | -31 | -2.4 | 79.4 | Cc1cc2occ(CN(C)CCN(C)Cc3cn(-c4cccc(C(F)(F)F)c4)c4ccccc34)c(=O)c2cc1C.Cl [NCGC00386701-02] | – |
| – | – | – | -33 | -2.4 | 79.4 | CC/C(=C(\c1ccc(O)cc1)c1ccc(OCCNC)cc1)c1ccccc1 [NCGC00386714-01] | – |
| – | – | – | -21 | -1.4 | 14.1 | CCOc1ccc(-c2cc(NC(=O)c3c(F)cccc3F)c(C(=O)O)s2)cc1 [NCGC00386875-01] | – |
| -30 | – | 56.2 | – | – | – | CCc1c(-c2ccccc2)c(-c2ccccc2)nn1-c1ccccc1-c1cccc(OCC(=O)O)c1 [NCGC00387254-02] | -2.4 |
| – | – | – | -26 | -1.4 | 5.6 | N#C/C(=C1\Nc2ccccc2S1)c1ccnc(NCCc2cccnc2)n1 [NCGC00387772-02] | – |
| – | – | – | -31 | -1.4 | 7.1 | N=C(N)c1ccc2c(c1)N/C(=C1/C=C(CC(=O)NC(CC(=O)O)C(=O)O)C=C(c3cc(S(N)(=O)=O)ccc3O)C1=O)N2 (stereo not drawn) [NCGC00387860-01] | – |
| – | – | – | -31 | -2.4 | 44.7 | O=C(Nc1ncc([N+](=O)[O-])s1)c1ccccc1O [NCGC00388427-01] | – |

| Structure (SMILES) | Efficacy (%) [1] [%] | Curve Class [1] | IC50 [1] [µM] | Efficacy (%) [2] [%] | Curve Class [2] | IC50 [2] [µM] | Curve Class [3] |
| --- | --- | --- | --- | --- | --- | --- | --- |
| O=C1Nc2ccc3ncsc3c2/C1=C/c1c[nH]cn1 [NCGC00387501-01] | -27 | – | 7.1 | – | – | – | -1.4 |
